Data published in US20230220021A1, “CYCLIC PEPTIDE INHIBITORS OF PSD-95 AND USES THEREOF” (University of Copenhagen, priority 2020, published 2023).
Where a SMILES comes first, the peptide text is derived from it. [ ]: non-standard residue; d: D form.

Molecular target: T1, PSD-95-PDZ2 (Homo sapiens, UniProt P78352)
T1 construct: 7xHis (N); made in house; host or cells: Escherichia coli B21 pLys (for the mutants, 'as previously described')
Experiment: Fluorescence polarization (FP) competition assay against cyclic nNOS TAMRA probe
Type: binding
Conditions: FP competition

T1 sequence (P78352 160-246 limits assumed): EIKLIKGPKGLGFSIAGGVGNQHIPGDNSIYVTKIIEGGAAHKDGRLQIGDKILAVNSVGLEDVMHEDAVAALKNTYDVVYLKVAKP

Compound	effect on interaction with PSD-95-PDZ2 (in words)
Cyclo-(THLEATFTGDGTPKTIRVTQpG(Qα)) (cyclo(THLEATFTGDGTPKTIRVTQ[dP]GQ); SMILES CC[C@H](C)[C@@H]1NC(=O)[C@H]([C@@H](C)O)NC(=O)[C@H](CCCCN)NC(=O)[C@@H]2CCCN2C(=O)[C@H]([C@@H](C)O)NC(=O)CNC(=O)[C@H](CC(=O)O)NC(=O)CNC(=O)[C@H]([C@@H](C)O)NC(=O)[C@H](Cc2ccccc2)NC(=O)[C@H]([C@@H](C)O)NC(=O)[C@H](C)NC(=O)[C@H](CCC(=O)O)NC(=O)[C@H](CC(C)C)NC(=O)[C@H](Cc2c[nH]cn2)NC(=O)[C@H]([C@@H](C)O)NC(=O)[C@H](CCC(N)=O)NC(=O)CNC(=O)[C@H]2CCCN2C(=O)[C@H](CCC(N)=O)NC(=O)[C@H]([C@@H](C)O)NC(=O)[C@H](C(C)C)NC(=O)[C@H](CCCNC(=N)N)NC1=O) [SEQ ID NO: 59]	abolishes binding

Same assay, conditions: FP competition, cyclic nNOS TAMRA probe; mean of triplicates; N.B. = not binding; read-out: Ki

Compound	Ki
CC[C@H](C)[C@@H]1NC(=O)[C@H]([C@@H](C)O)NC(=O)[C@H](CCCCN)NC(=O)[C@@H]2CCCN2C(=O)[C@H]([C@@H](C)O)NC(=O)CNC(=O)[C@H](CC(=O)O)NC(=O)CN(C)C(=O)[C@H]([C@@H](C)O)NC(=O)[C@H](Cc2ccccc2)NC(=O)[C@H]([C@@H](C)O)NC(=O)[C@H]([C@@H](C)O)NC(=O)[C@H](CCC(=O)O)NC(=O)[C@H](CC(C)C)NC(=O)[C@H](Cc2c[nH]cn2)NC(=O)[C@H]([C@@H](C)O)NC(=O)[C@H](CCC(N)=O)NC(=O)CNC(=O)[C@H]2CCCN2C(=O)[C@H](CCC(N)=O)NC(=O)[C@H]([C@@H](C)O)NC(=O)[C@H](C(C)C)NC(=O)[C@H](CCCNC(=N)N)NC1=O [compound 92]	6190 nM
CC[C@H](C)[C@@H]1NC(=O)[C@H]([C@@H](C)O)NC(=O)[C@H](CCCCN)NC(=O)[C@@H]2CCCN2C(=O)[C@H](CCC(=O)O)NC(=O)CNC(=O)[C@@H](CC(=O)O)NC(=O)CNC(=O)[C@H](Cc2c[nH]c3ccccc23)NC(=O)[C@H](Cc2ccccc2)NC(=O)[C@H]([C@@H](C)O)NC(=O)[C@H]([C@@H](C)O)NC(=O)[C@H](CCC(=O)O)NC(=O)[C@H](CC(C)C)NC(=O)[C@H](Cc2c[nH]cn2)NC(=O)[C@H]([C@@H](C)O)NC(=O)[C@H](CCC(N)=O)NC(=O)CNC(=O)[C@H]2CCCN2C(=O)[C@H](CCC(N)=O)NC(=O)[C@H]([C@@H](C)O)NC(=O)[C@H](C(C)C)NC(=O)[C@H](CCCNC(=N)N)NC1=O [compound 135] (cyclo(THLETTFWG[dD]GEPKTIRVTQ[dP]GQ))	190 nM
CC[C@H](C)[C@@H]1NC(=O)[C@H]([C@@H](C)O)NC(=O)[C@H](CCCCN)NC(=O)[C@@H]2CCCN2C(=O)[C@H](CCC(=O)O)NC(=O)[C@H](C)NC(=O)[C@H](CC(=O)O)NC(=O)CNC(=O)[C@H](Cc2c[nH]c3ccccc23)NC(=O)[C@H](Cc2ccccc2)NC(=O)[C@H]([C@@H](C)O)NC(=O)[C@H]([C@@H](C)O)NC(=O)[C@H](CCC(=O)O)NC(=O)[C@H](CC(C)C)NC(=O)[C@H](Cc2c[nH]cn2)NC(=O)[C@H]([C@@H](C)O)NC(=O)[C@H](CCC(N)=O)NC(=O)CNC(=O)[C@H]2CCCN2C(=O)[C@H](CCC(N)=O)NC(=O)[C@H]([C@@H](C)O)NC(=O)[C@H](C(C)C)NC(=O)[C@H](CCCNC(=N)N)NC1=O [compound 134] (cyclo(THLETTFWGDAEPKTIRVTQ[dP]GQ))	260 nM
CC[C@H](C)[C@@H]1NC(=O)[C@H]([C@@H](C)O)NC(=O)[C@H](CCCCN)NC(=O)[C@@H]2CCCN2C(=O)CNC(=O)[C@H](CC(=O)O)NC(=O)CNC(=O)[C@H]([C@@H](C)O)NC(=O)[C@H](Cc2ccccc2)NC(=O)[C@H]([C@@H](C)O)NC(=O)[C@H]([C@@H](C)O)NC(=O)[C@H](CCC(=O)O)NC(=O)[C@H](CC(C)C)NC(=O)[C@H](Cc2c[nH]cn2)NC(=O)[C@H]([C@@H](C)O)NC(=O)[C@H](CCC(N)=O)NC(=O)CNC(=O)[C@H]2CCCN2C(=O)[C@H](CCC(N)=O)NC(=O)[C@H]([C@@H](C)O)NC(=O)[C@H](C(C)C)NC(=O)[C@H](CCCNC(=N)N)NC1=O [compound 77] (cyclo(THLETTFTGDGPKTIRVTQ[dP]GQ))	1430 nM
CC[C@H](C)[C@@H]1NC(=O)[C@H]([C@@H](C)O)NC(=O)[C@H](CCCCN)NC(=O)[C@@H]2CCCN2C(=O)[C@H]([C@@H](C)O)NC(=O)CNC(=O)[C@H](CC(=O)O)NC(=O)CNC(=O)[C@H]([C@@H](C)O)NC(=O)[C@H](Cc2ccccc2)NC(=O)[C@H]([C@@H](C)O)N(C)C(=O)[C@H]([C@@H](C)O)NC(=O)[C@H](CCC(=O)O)NC(=O)[C@H](CC(C)C)NC(=O)[C@H](Cc2c[nH]cn2)NC(=O)[C@H]([C@@H](C)O)NC(=O)[C@H](CCC(N)=O)NC(=O)CNC(=O)[C@H]2CCCN2C(=O)[C@H](CCC(N)=O)NC(=O)[C@H]([C@@H](C)O)NC(=O)[C@H](C(C)C)NC(=O)[C@H](CCCNC(=N)N)NC1=O [compound 89]	1470 nM
CC[C@H](C)[C@@H]1NC(=O)[C@H]([C@@H](C)O)NC(=O)[C@H](CCCCN)NC(=O)[C@@H]2CCCN2C(=O)[C@H]([C@@H](C)O)NC(=O)CNC(=O)[C@H](CC(=O)O)NC(=O)CNC(=O)[C@H]([C@@H](C)O)NC(=O)[C@H](Cc2ccccc2)NC(=O)[C@H]([C@@H](C)O)NC(=O)[C@H]([C@@H](C)O)NC(=O)[C@H](CCC(=O)O)NC(=O)[C@H](CC(C)C)NC(=O)[C@H](CCC(=O)O)NC(=O)[C@H]([C@@H](C)O)NC(=O)[C@H](CCC(N)=O)NC(=O)CNC(=O)[C@H]2CCCN2C(=O)[C@H](CCC(N)=O)NC(=O)[C@H]([C@@H](C)O)NC(=O)[C@H](C(C)C)NC(=O)[C@H](CCCNC(=N)N)NC1=O [compound 23] (cyclo(TELETTFTGDGTPKTIRVTQ[dP]GQ))	6190 nM
CC[C@H](C)[C@@H]1NC(=O)[C@H]([C@@H](C)O)NC(=O)[C@H](CCCCN)NC(=O)[C@@H]2CCCN2C(=O)[C@H]([C@@H](C)O)NC(=O)CNC(=O)[C@H](CC(=O)O)NC(=O)CNC(=O)[C@H](Cc2c[nH]c3ccccc23)NC(=O)[C@H](Cc2ccccc2)NC(=O)[C@H]([C@@H](C)O)NC(=O)[C@H]([C@@H](C)O)NC(=O)[C@H](CCC(=O)O)NC(=O)[C@H](CC(C)C)NC(=O)[C@H](Cc2c[nH]cn2)NC(=O)[C@H]([C@@H](C)O)NC(=O)[C@H](CCC(N)=O)NC(=O)CNC(=O)[C@H]2CCCN2C(=O)[C@H](CCC(N)=O)NC(=O)[C@H]([C@@H](C)O)NC(=O)[C@H](C(C)C)NC(=O)[C@H](CCCNC(=N)N)NC1=O [compound 18] (cyclo(THLETTFWGDGTPKTIRVTQ[dP]GQ))	720 nM
CC[C@H](C)[C@@H]1NC(=O)[C@H]([C@@H](C)O)NC(=O)[C@H](CCCCN)NC(=O)[C@@H]2CCCN2C(=O)[C@H]([C@@H](C)O)NC(=O)CNC(=O)[C@H](CC(=O)O)NC(=O)CNC(=O)[C@H]([C@@H](C)O)NC(=O)[C@H](Cc2ccccc2)NC(=O)[C@H]([C@@H](C)O)NC(=O)[C@H]([C@@H](C)O)NC(=O)[C@H](CCC(=O)O)NC(=O)[C@H](CC(C)C)NC(=O)[C@H](Cc2c[nH]cn2)NC(=O)[C@H]([C@@H](C)O)N(C)C(=O)[C@H](CCC(N)=O)NC(=O)CNC(=O)[C@H]2CCCN2C(=O)[C@H](CCC(N)=O)NC(=O)[C@H]([C@@H](C)O)NC(=O)[C@H](C(C)C)NC(=O)[C@H](CCCNC(=N)N)NC1=O [compound 84]	4800 nM

Same assay, conditions: FP competition, relative to unsubstituted cyclic peptide

Compound	fold lowered (decreased) binding affinity of the cyclic peptide
Cyclo-(THLESTFTGDGTPKTIRVTQpG(Qα)) (cyclo(THLESTFTGDGTPKTIRVTQ[dP]GQ); SMILES CC[C@H](C)[C@@H]1NC(=O)[C@H]([C@@H](C)O)NC(=O)[C@H](CCCCN)NC(=O)[C@@H]2CCCN2C(=O)[C@H]([C@@H](C)O)NC(=O)CNC(=O)[C@H](CC(=O)O)NC(=O)CNC(=O)[C@H]([C@@H](C)O)NC(=O)[C@H](Cc2ccccc2)NC(=O)[C@H]([C@@H](C)O)NC(=O)[C@H](CO)NC(=O)[C@H](CCC(=O)O)NC(=O)[C@H](CC(C)C)NC(=O)[C@H](Cc2c[nH]cn2)NC(=O)[C@H]([C@@H](C)O)NC(=O)[C@H](CCC(N)=O)NC(=O)CNC(=O)[C@H]2CCCN2C(=O)[C@H](CCC(N)=O)NC(=O)[C@H]([C@@H](C)O)NC(=O)[C@H](C(C)C)NC(=O)[C@H](CCCNC(=N)N)NC1=O) [SEQ ID NO: 52]	7 fold

Same assay, conditions: FP inhibition constant normalized to WT value

Compound	Relative Ki (Ki mut/Ki WT)
CC[C@H](C)[C@@H]1NC(=O)[C@H]([C@@H](C)O)NC(=O)[C@H](CCCCN)NC(=O)[C@@H]2CCCN2C(=O)[C@H]([C@@H](C)O)NC(=O)[C@H](CCCNC(=N)N)NC(=O)[C@H](CC(=O)O)NC(=O)CNC(=O)[C@H]([C@@H](C)O)NC(=O)[C@H](Cc2ccccc2)NC(=O)[C@H]([C@@H](C)O)NC(=O)[C@H]([C@@H](C)O)NC(=O)[C@H](CCC(=O)O)NC(=O)[C@H](CC(C)C)NC(=O)[C@H](Cc2c[nH]cn2)NC(=O)[C@H]([C@@H](C)O)NC(=O)[C@H](CCC(N)=O)NC(=O)CNC(=O)[C@H]2CCCN2C(=O)[C@H](CCC(N)=O)NC(=O)[C@H]([C@@H](C)O)NC(=O)[C@H](C(C)C)NC(=O)[C@H](CCCNC(=N)N)NC1=O [compound 35] (cyclo(THLETTFTGDRTPKTIRVTQ[dP]GQ))	0.50
CC[C@H](C)[C@@H]1NC(=O)[C@H]([C@@H](C)O)NC(=O)[C@H](CCCCN)NC(=O)[C@@H]2CCCN2C(=O)[C@@H]2CCCN2C(=O)CNC(=O)[C@H](CC(=O)O)NC(=O)CNC(=O)[C@H]([C@@H](C)O)NC(=O)[C@H](Cc2ccccc2)NC(=O)[C@H]([C@@H](C)O)NC(=O)[C@H]([C@@H](C)O)NC(=O)[C@H](CCC(=O)O)NC(=O)[C@H](CC(C)C)NC(=O)[C@H](Cc2c[nH]cn2)NC(=O)[C@H]([C@@H](C)O)NC(=O)[C@H](CCC(N)=O)NC(=O)CNC(=O)[C@H]2CCCN2C(=O)[C@H](CCC(N)=O)NC(=O)[C@H]([C@@H](C)O)NC(=O)[C@H](C(C)C)NC(=O)[C@H](CCCNC(=N)N)NC1=O [compound 31] (cyclo(THLETTFTGDGPPKTIRVTQ[dP]GQ))	0.77
CC[C@H](C)[C@@H]1NC(=O)[C@H]([C@@H](C)O)NC(=O)[C@H](CCCCN)NC(=O)[C@@H]2CCCN2C(=O)[C@H]([C@@H](C)O)NC(=O)CNC(=O)[C@H](CC(=O)O)NC(=O)CNC(=O)[C@H]([C@@H](C)O)NC(=O)[C@H](Cc2ccccc2)NC(=O)[C@H]([C@@H](C)O)NC(=O)[C@H]([C@@H](C)O)NC(=O)[C@H](CCC(=O)O)NC(=O)[C@H](CC(C)C)NC(=O)[C@H](CCC(=O)O)NC(=O)[C@H]([C@@H](C)O)NC(=O)[C@H](CCC(N)=O)NC(=O)CNC(=O)[C@H]2CCCN2C(=O)[C@H](CCC(N)=O)NC(=O)[C@H]([C@@H](C)O)NC(=O)[C@H](C(C)C)NC(=O)[C@H](CCCNC(=N)N)NC1=O [compound 23] (cyclo(TELETTFTGDGTPKTIRVTQ[dP]GQ))	4.13
CC[C@H](C)[C@@H]1NC(=O)[C@H]([C@@H](C)O)NC(=O)[C@H](CCCCN)NC(=O)[C@@H]2CCCN2C(=O)[C@H]([C@@H](C)O)NC(=O)CNC(=O)[C@H](CC(=O)O)NC(=O)CNC(=O)[C@H](Cc2c[nH]c3ccccc23)NC(=O)[C@H](Cc2ccccc2)NC(=O)[C@H]([C@@H](C)O)NC(=O)[C@H]([C@@H](C)O)NC(=O)[C@H](CCC(=O)O)NC(=O)[C@H](CC(C)C)NC(=O)[C@H](Cc2c[nH]cn2)NC(=O)[C@H]([C@@H](C)O)NC(=O)[C@H](CCC(N)=O)NC(=O)CNC(=O)[C@H]2CCCN2C(=O)[C@H](CCC(N)=O)NC(=O)[C@H]([C@@H](C)O)NC(=O)[C@H](C(C)C)NC(=O)[C@H](CCCNC(=N)N)NC1=O [compound 18] (cyclo(THLETTFWGDGTPKTIRVTQ[dP]GQ))	0.48
